Laboratory results: patent publication US20040033595A1, “Conditionally replicating vectors for inhibiting viral infections” (priority 2001, published 2004)

Experiments:
Human CD4+ T cells = test: Sensitivity of human CD4+ T cells to BG and BCNU (expansion in culture); assay type: cell-based; conditions: for dose dependence of CD4 cell killing / toxicity: increasing dose
Procedure: CD14 depleted CD4+ cells were purified from peripheral blood with or without cytokine mobilization. […] Under appropriate conditions in the absence of […] and BCNU, CD4+ cells can be expanded up to 100 fold over 10 days in culture. Doses tested were 0, 0.2, 0.5, 2, 5, 10, 20, 30, and 40 μM BG and 0, 2, 5, 10, 20, 30, and 40 μM BCNU. A series of three experiments were performed.

HIV = conditions: human, in vivo; cited from earlier work
wild-type U5-HIV RNA = test: In vitro ribozyme cleavage of radiolabeled wild-type U5 HIV RNA (PAGE, autoradiography); assay type: biochemical; conditions: target to ribozyme molar ratio 1:2, 37° C. 5 min
Procedure: (§1) To confirm the resistance to ribozyme cleavage of the crHIV vectors, in vitro transcription was performed. To accomplish this, the ribozyme sequences were cloned into the Xho I site of pBluescript KSII (Stratagene, La Jolla, Calif.). A 0.21 kilobase pair (kb) Bgl II fragment containing the mutated crHIV U5 region similarly was excised from the crHIV vector and inserted into the Bam HI site of pBluescript KSII. The resultant modified pBluescript KSII vectors were linearized with Bss HII prior to in vitro transcription. A similar plasmid expressing wild-type HIV U5 RNA (described in Myers et al. (1994), supra) was employed as a control. It was linearized with Eco RI prior to in vitro transcription.
(§2) Radiolabeled U5 HIV RNA and ribozyme RNA were produced by in vitro transcription of the vectors, as previously described (Dropulic' et al. (1992), supra). The radiolabeled transcripts were incubated together (at a target to ribozyme molar ratio of 1:2) in 1×transcription buffer containing 40 mM Tris-HCl, pH 7.5, 6 mM MgCl2, 2 mM Spermidine, and 10 mM NaCl. The samples were heated to 65° C., and then cooled to 37° C. for 5 min prior to the addition of stop buffer solution containing 95% formamide, 20 mM EDTA, 0.05% Bromophenol Blue, and 0.05% Xylene Cyanol FF. The products' were then resolved by denaturing polyacrylamide gel electrophoresis (PAGE), and detected by autoradiography.

[1] = test system: modified U5-containing crHIV RNA; test: In vitro ribozyme cleavage of radiolabeled modified crHIV U5 RNA (PAGE, autoradiography); assay type: biochemical; conditions: target to ribozyme molar ratio 1:2, 37° C. 5 min
Procedure: as §1, §2

Compound: O=NN(CCCl)C(=O)NCCCl [BCNU, 1,3-bis(2-chloroethyl)-1-nitrosourea]
- growth delay of CD4+ cells (Human CD4+ T cells; BCNU alone): did not result in growth delay
- dose dependence of CD4 cell killing / toxicity (Human CD4+ T cells): toxicity to CD4 cells increased with the BCNU dose

Compound: Nc1nc(OCc2ccccc2)c2nc[nH]c2n1 [BG, O^6-benzylguanine]
- dose dependence of CD4 cell killing / toxicity (Human CD4+ T cells): did not increase cell killing

Compound: Nc1ccn([C@H]2CC[C@@H](CO)O2)c(=O)n1 [ddC]
- range virustatic in most patients (HIV): 0.005-0.25 mg/kg body weight

Compound: CACACAACACTGATGAGGCCGAAAGGCCGAAACGGGCACA (expressed or natural sequence) [the +115 ribozyme]
- cleavage of wild-type U5-HIV RNA (wild-type U5-HIV RNA): cleavage was readily observed
- cleavage of modified U5-containing crHIV RNA [1]: cleavage products were not detected
